Measurements published in patent publication US10017507B2, “Diaza-benzofluoranthrene compounds” (HARBIN PHARMACEUTICAL GROUP CO., LTD. GENERAL …, priority 2015, dated 2018).

Target: T1, PDE1A (Homo sapiens, UniProt P54750)
T1 construct: purchased SignalChem
Experiment: In vitro detection of phosphodiesterase (PDE): PDE1A enzyme activity by fluorescence polarization immunoassay
Type: biochemical
Conditions: human-derived enzyme, cAMP or cGMP substrate; read-out: IC50s for PDE1
Protocol: Test 1: In Vitro Detection of Phosphodiesterase (PDE)
the enzyme activity of PDE1A was determined by detecting the production of AMP/GMP by fluorescence polarization immunoassay, wherein AlexaFluor 633 labeled AMP/GMP was used to replace AMP/GMP to bind with the antibody.
Reaction buffer: 10 mM Tris-HCl, pH 7.5, 5 mM magnesium chloride, 0.01% Brij 35, 1 mM DTT and 1% DMSO;
Enzyme substrate: […] cAMP or cGMP (Ca^2+-calmodulin acts as a cofactor of PDE1A)
Detection reagent: Transcreener® AMP2/GMP2 antibody; AMP2/GMP2 AlexaFluor 633 tracer.
Experimental Procedure and Method:
1. Human-derived enzyme (commercially available from SignalChem) to be tested and substrate were diluted with freshly prepared reaction buffer;
2. The enzyme solution (with a concentration of 3 pM) was added to the holes of the microplates;
3. A series of solutions of the compounds in 100% DMSO (with the desired concentrations) were added to the holes containing the enzyme solution by Echo550, and then the microplates were incubated for 10 minutes at room temperature;
4. The substrate solution was added to the holes containing the enzyme and compounds to start the reaction;
5. The microplates were incubated for 1 hour under room temperature and vibration;
6. The detection mixture (tracer and antibody in stop buffer) was added to stop the enzyme reaction, and the microplates were incubated for 90 minutes under vibration;
7. The equipment EnVision (PerkinElmer), Cy5 FP Ex FP 620, Em S-pol 688/P-pol 688, FP mirror D658fp/D688 was used to detect the reaction mixture, and Ex/Em 620/688 was used to detect the fluorescence polarization.
In the Excel table, the enzyme activity corresponding to the FP signal was found on the AMP/GMP standard curve by reference to the DMSO negative control, and then was converted to product concentration (nM). GraphPad Prism was used to analyze and calculate the IC50 values.

| IC50 | Molecule |
| --- | --- |
| 20 to 100 µM | CC[C@@]12C=C(C3=N[C@@H](C)CO3)n3c4c(c5ccccc53)CCN(CCC1)[C@H]42 [Example 38, (S)-2-((4^1S,13aS)-13a-ethyl-2,3,4^1,5,6,13a-hexahydro-1H-indolo[3,2,1-de]pyrido[3,2,1-ij][1,5]naphthyridin-12-yl)-4-methyl-4,5-dihydrooxazole] |
| > 100 µM | CC[C@@]12C=C(c3nc(-c4ccc(F)cc4)no3)n3c4c(c5ccccc53)CCN(CCC1)[C@H]42 [Example 32, 5-((4S,13aS)-13a-ethyl-2,3,4^1,5,6,13a-hexahydro-1H-indolo[3,2,1-de]pyrido[3,2,1-ij][1,5]naphthyridin-12-yl)-3-(4-fluorophenyl)-1,2,4-oxadiazole] |
| 1 to 20 µM | CC[C@@]12C=C(c3nc(C4CC4)no3)n3c4c(c5ccccc53)CCN(CCC1)[C@H]42 [Example 35, 3-Cyclopropyl-5-((4^1S,13aS)-13a-ethyl-2,3,4^1,5,6,13a-hexahydro-1H-indolo[3,2,1-de]pyrido[3,2,1-ij][1,5]naphthyridin-12-yl)-1,2,4-oxadiazole] |
| > 100 µM | CC[C@@]12C=C(c3nc(-c4ccccc4)no3)n3c4c(c5ccccc53)CCN(CCC1)[C@H]42 [Example 30, 5-((4^1S,13aS)-13a-ethyl-2,3,4^1,5,6,13a-hexahydro-1H-indolo[3,2,1-de]pyrido[3,2,1-ij][1,5]naphthyridin-12-yl)-3-phenyl-1,2,4-oxadiazole] |
| 20 to 100 µM | (4^1S,13aS)-13a-ethyl-N-(3-methoxylpropyl)-12-(3-methyl-1,2,4-oxadiazol-5-yl)-2,3,4^1,5,6,13a-hexahydro-1H-indolo[3,2,1-de]pyrido[3,2,1-ij][1,5]naphthyridin-9-sulfonamide [Example 78] |
| 1 to 20 µM | CC[C@@]12C=C(c3nc(C(C)C)no3)n3c4c(c5ccccc53)CCN(CCC1)[C@H]42 [Example 34, 5-((4S,13aS)-13a-ethyl-2,3,4^1,5,6,13a-hexahydro-1H-indolo[3,2,1-de]pyrido[3,2,1-ij][1,5]naphthyridin-12-yl)-3-isopropyl-1,2,4-oxadiazole] |
| 20 to 100 µM | CC[C@@]12C=C(c3nc(C(F)(F)F)no3)n3c4c(c5ccccc53)CCN(CCC1)[C@H]42 [Example 22, 5-((4^1S,13aS)-13a-ethyl-2,3,4^1,5,6,13a-hexahydro-1H-indolo[3,2,1-de]pyrido[3,2,1-ij][1,5]naphthyridin-12-yl)-3-trifluoromethyl-1,2,4-oxadiazole] |
| ≤ 1 µM | CC[C@@]12C=C(c3nc(C)c(CO)o3)n3c4c(c5ccccc53)CCN(CCC1)[C@H]42 [Example 61, (2-((4^1S,13aS)-13a-ethyl-2,3,4^1,5,6,13a-hexahydro-1H-indolo[3,2,1-de]pyrido[3,2,1-ij][1,5]naphthyridin-12-yl)-4-methyloxazol-5-yl)methanol] |
| ≤ 1 µM | CC[C@@]12C=C(c3nc4c(o3)CCCC4)n3c4c(c5ccccc53)CCN(CCC1)[C@H]42 [Example 55, 2-((4^1S,13aS)-13a-ethyl-2,3,4^1,5,6,13a-hexahydro-1H-indolo[3,2,1-de]pyrido[3,2,1-ij][1,5]naphthyridin-12-yl)-4,5,6,7-tetrahydrobenzo[d]oxazole] |
| 1 to 20 µM | CC[C@@]12C=C(c3noc(C4CCOCC4)n3)n3c4c(c5ccccc53)CCN(CCC1)[C@H]42 [Example 23, 3-((4^1S,13aS)-13a-ethyl-2,3,4^1,5,6,13a-hexahydro-1H-indolo[3,2,1-de]pyrido[3,2,1-ij][1,5]naphthyridin-12-yl)-5-(tetrahydro-2H-pyran-4-yl)-1,2,4-oxadiazole] |
| ≤ 1 µM | CCc1oc(C2=C[C@]3(CC)CCCN4CCc5c(n2c2ccccc52)[C@@H]43)nc1C [Example 53, 5-ethyl-2-((4^1S,13aS)-13a-ethyl-2,3,4^1,5,6,13a-hexahydro-1H-indolo[3,2,1-de]pyrido[3,2,1-ij][1,5]naphthyridin-12-yl)-4-methyloxazole] |

The remaining lines, values behind:

| Molecule | IC50 |
| --- | --- |
| CC[C@@]12C=C(c3cn4ccc(C(F)(F)F)cc4n3)n3c4c(c5ccccc53)CCN(CCC1)[C@H]42 [Example 44, (4^1S,13aS)-13a-ethyl-12(7-(trifluoromethyl)imidazo[1,2-a]pyridin-2-yl)-2,3,4^1,5,6,13a-hexahydro-1H-indolo[3,2,1-de]pyrido[3,2,1-ij][1,5]naphthyridine] | 20 to 100 µM |
| (4^1S,13aS)-13a-ethyl-N-methyl-12-(3-methyl-1,2,4-oxadiazol-5-yl)-2,3,4^1,5,6,13a-hexahydro-1H-indolo[3,2,1-de]pyrido[3,2,1-ij][1,5]naphthyridin-8-sulfonamide [Example 79] | 1 to 20 µM |
| CCOC(=O)/C=C/C1=C[C@]2(CC)CCCN3CCc4c(n1c1ccccc41)[C@@H]32 [Example 6, (E)-ethyl-3-((4^1S,13aS)-13a-ethyl-2,3,4^1,5,6,13a-hexahydro-1H-indolo[3,2,1-de]pyrido[3,2,1-ij][1,5]naphthyridin-12-yl)acrylate] | 1 to 20 µM |
| CC[C@@]12C=C(c3ncc[nH]3)n3c4c(c5ccccc53)CCN(CCC1)[C@H]42 [Example 3, (4^1S,13aS)-13a-ethyl-12-(1H-imidazol-2-yl)-2,3,4^1,5,6,13a-hexahydro-1H-indolo[3,2,1-de]pyrido[3,2,1-ij][1,5]naphthyridine] | > 100 µM |
| CC[C@@]12C=C(c3nc(C)c(C(C)(C)O)o3)n3c4c(c5ccccc53)CCN(CCC1)[C@H]42 [Example 60, 2-(2-((4^1S,13aS)-13a-ethyl-2,3,4^1,5,6,13a-hexahydro-1H-indolo[3,2,1-de]pyrido[3,2,1-ij][1,5]naphthyridin-12-yl)-4-methyloxazol-5-yl)propan-2-ol] | 1 to 20 µM |
| CC[C@@]12C=C(c3nnc(C)o3)n3c4c(c5ccccc53)CCN(CCC1)[C@H]42 [Example 17, 2-((4^1S,13aS)-13a-ethyl-2,3,4^1,5,6,13a-hexahydro-1H-indolo[3,2,1-de]pyrido[3,2,1-ij][1,5]naphthyridin-12-yl)-5-methyl-1,3,4-oxadiazole] | 1 to 20 µM |
| CC[C@@]12C=C(c3nc(C)c(C)o3)n3c4c(c5ccc(S(=O)(=O)NCCCOC)cc53)CCN(CCC1)[C@H]42 [Example 70, (4^1S,13aS)-12-(4,5-dimethyloxazol-2-yl)-13a-ethyl-N-(3-methoxylpropyl)-2,3,4^1,5,6,13a-hexahydro-1H-indolo[3,2,1-de]pyrido[3,2,1-ij][1,5]naphthyridin-9-sulfonamide] | ≤ 1 µM |
| (4^1S,13aS)-13a-ethyl-12-(1-methyl-1H-pyrazol-3-yl)-2,3,4^1,5,6,13a-hexahydro-1H-indolo[3,2,1-de]pyrido[3,2,1-ij][1,5]naphthyridine, and (4^1S,13aS)-13a-ethyl-12-(1-methyl-1H-pyrazol-5-yl)-2,3,4^1,5,6,13a-hexahydro-1H-indolo[3,2,1-de]pyrido[3,2,1-ij][1,5]naphthyridine [Example 46] | 20 to 100 µM |
| CC[C@@]12C=C(c3nc(C)c(OC)o3)n3c4c(c5ccccc53)CCN(CCC1)[C@H]42 [Example 41, 2-((4^1S,13aS)-13a-ethyl-2,3,4^1,5,6,13a-hexahydro-1H-indolo[3,2,1-de]pyrido[3,2,1-ij][1,5]naphthyridin-12-yl)-5-methoxy-4-methyloxazole] | ≤ 1 µM |
| CC[C@@]12C=C(c3nsc(=O)[nH]3)n3c4c(c5ccccc53)CCN(CCC1)[C@H]42 [Example 19, 3-((4^1S,13aS)-13a-ethyl-2,3,4^1,5,6,13a-hexahydro-1H-indolo[3,2,1-de]pyrido[3,2,1-ij][1,5]naphthyridin-12-yl)-1,2,4-thiadiazol-5(4H)-one] | > 100 µM |
| CC[C@@]12C=C(c3noc(-c4ccncc4)n3)n3c4c(c5ccccc53)CCN(CCC1)[C@H]42 [Example 24, 3-((4^1S,13aS)-13a-ethyl-2,3,4^1,5,6,13a-hexahydro-1H-indolo[3,2,1-de]pyrido[3,2,1-ij][1,5]naphthyridin-12-yl)-5-(pyridin-4-yl)-1,2,4-oxadiazole] | 20 to 100 µM |
| CC[C@@]12C=C(c3ncccc3C)n3c4c(c5ccccc53)CCN(CCC1)[C@H]42 [Example 13, (4^1S,13aS)-13a-ethyl-12-(3-methylpyridin-2-yl)-2,3,4^1,5,6,13a-hexahydro-1H-indolo[3,2,1-de]pyrido[3,2,1-ij][1,5]naphthyridine] | 20 to 100 µM |
| CC[C@@]12C=C(c3nc(C)c(C)s3)n3c4c(c5ccccc53)CCN(CCC1)[C@H]42 [Example 40, 2-((4^1S,13aS)-13a-ethyl-2,3,4^1,5,6,13a-hexahydro-1H-indolo[3,2,1-de]pyrido[3,2,1-ij][1,5]naphthyridin-12-yl)-4,5-dimethylthiazole] | 1 to 20 µM |
| CC[C@@]12C=C(c3nc(C)c(C)o3)n3c4c(c5ccc(S(=O)(=O)NC)cc53)CCN(CCC1)[C@H]42 [Example 68, (4^1S,13aS)-12-(4,5-dimethyloxazol-2-yl)-13a-ethyl-N-methyl-2,3,4^1,5,6,13a-hexahydro-1H-indolo[3,2,1-de]pyrido[3,2,1-ij][1,5]naphthyridin-9-sulfonamide] | ≤ 1 µM |
